Reference: ChEMBL document CHEMBL1152510, “Melanogenesis inhibitors from the rhizomes of Alpinia officinarum in B16 melanoma cells” (Bioorg Med Chem, 2009)
Activity calls are given as the source filed them. No cut-off for these calls is given here.

Legend:
[1] = biological target: T1, Tyrosinase (Agaricus bisporus) (UniProt O42713); assay: Inhibition of mushroom tyrosinase at 1 uM
T1 sequence (whole entry): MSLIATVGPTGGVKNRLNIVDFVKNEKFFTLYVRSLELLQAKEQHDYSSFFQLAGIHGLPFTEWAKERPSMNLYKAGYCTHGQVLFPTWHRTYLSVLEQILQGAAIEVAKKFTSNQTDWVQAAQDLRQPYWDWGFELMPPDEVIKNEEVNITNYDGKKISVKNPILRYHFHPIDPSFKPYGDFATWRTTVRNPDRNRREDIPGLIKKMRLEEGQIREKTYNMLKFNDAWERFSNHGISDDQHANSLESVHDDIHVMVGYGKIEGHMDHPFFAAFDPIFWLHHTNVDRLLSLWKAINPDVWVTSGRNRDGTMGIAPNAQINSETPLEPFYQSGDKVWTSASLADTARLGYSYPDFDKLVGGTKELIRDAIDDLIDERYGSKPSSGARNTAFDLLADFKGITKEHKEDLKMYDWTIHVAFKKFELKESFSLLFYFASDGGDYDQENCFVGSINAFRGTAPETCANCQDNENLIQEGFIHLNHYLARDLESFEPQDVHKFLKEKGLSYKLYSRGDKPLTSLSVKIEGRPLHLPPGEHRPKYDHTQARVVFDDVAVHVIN

[2] = biological target: T1, Tyrosinase (Agaricus bisporus); assay: Inhibition of mushroom tyrosinase at 3 uM
Tyrosinase = biological target: T2, Tyrosinase (Agaricus bisporus, UniProt O42713)
T2 sequence (O42713 whole entry): T1 sequence (whole entry)

cells [3] = details: Mus musculus, B16-4A5, 72 h, read-out: INH
Description: Inhibition of melanogenesis in theophylline-stimulated mouse B16-4A5 cells at 1 uM after 72 hrs

cells [4] = details: Mus musculus, B16-4A5, 72 h, read-out: INH; remark: listed apart in the source
Description: Inhibition of melanogenesis in theophylline-stimulated mouse B16-4A5 cells at 3 uM after 72 hrs

cells [5] = details: Mus musculus, B16-4A5, 72 h, read-out: INH; remark: listed apart in the source
Description: Inhibition of melanogenesis in theophylline-stimulated mouse B16-4A5 cells at 10 uM after 72 hrs

cells [6] = details: Mus musculus, B16-4A5, 72 h, read-out: INH; remark: listed apart in the source
Description: Inhibition of melanogenesis in theophylline-stimulated mouse B16-4A5 cells at 30 uM after 72 hrs

cells [7] = details: Mus musculus, B16-4A5, 72 h, read-out: INH; remark: listed apart in the source
Description: Inhibition of melanogenesis in theophylline-stimulated mouse B16-4A5 cells at 100 uM after 72 hrs

B16 = assay: cells; details: Mus musculus, B16, 72 h
Description: Inhibition of melanogenesis in theophylline-stimulated mouse B16-4A5 cells after 72 hrs

cells [8] = details: Mus musculus, B16-4A5, 68 h, read-out: INH
Description: Inhibition of theophylline-stimulated mouse B16-4A5 cell proliferation assessed as cell viability at 1 uM after 68 hrs by WST8 assay

cells [9] = details: Mus musculus, B16-4A5, 68 h, read-out: INH; remark: listed apart in the source
Description: Inhibition of theophylline-stimulated mouse B16-4A5 cell proliferation assessed as cell viability at 3 uM after 68 hrs by WST8 assay

cells [10] = details: Mus musculus, B16-4A5, 68 h, read-out: INH; remark: listed apart in the source
Description: Inhibition of theophylline-stimulated mouse B16-4A5 cell proliferation assessed as cell viability at 10 uM after 68 hrs by WST8 assay

cells [11] = details: Mus musculus, B16-4A5, 68 h, read-out: INH; remark: listed apart in the source
Description: Inhibition of theophylline-stimulated mouse B16-4A5 cell proliferation assessed as cell viability at 30 uM after 68 hrs by WST8 assay

cells [12] = details: Mus musculus, B16-4A5, 68 h, read-out: INH; remark: listed apart in the source
Description: Inhibition of theophylline-stimulated mouse B16-4A5 cell proliferation assessed as cell viability at 100 uM after 68 hrs by WST8 assay

cells [13] = details: Mus musculus, B16-4A5, 68 h
Description: Inhibition of theophylline-stimulated mouse B16-4A5 cell proliferation assessed as cell viability after 68 hrs by WST8 assay

B16-4A5 [14] = assay: Inhibition of tyrosinase mRNA expression in theophylline-stimulated mouse B16-4A5 cells at 1 to 30 uM after 72 hrs; assay type: functional, cell-based
B16-4A5 [15] = assay: Inhibition of TRP1 mRNA expression in theophylline-stimulated mouse B16-4A5 cells at 1 to 30 uM after 72 hrs; assay type: functional, cell-based
B16-4A5 [16] = assay: Inhibition of TRP2 mRNA expression in theophylline-stimulated mouse B16-4A5 cells at 1 to 30 uM after 72 hrs; assay type: functional, cell-based
B16-4A5 [17] = assay: Inhibition of microphthalmia-associated transcriptional factor level in theophylline-stimulated mouse B16-4A5 cells at 1 to 30 uM after 24 hrs; assay type: functional, cell-based
B16-4A5 [18] = assay: Inhibition of microphthalmia-associated transcriptional factor level in theophylline-stimulated mouse B16-4A5 cells at 1 to 30 uM after 48 hrs; assay type: functional, cell-based
[19] = Inhibition of melanogenesis in theophylline-stimulated mouse B16-4A5 cells at 300 uM after 72 hrs; assay type: functional; details: B16-4A5, 72 h
[20] = Inhibition of melanogenesis in theophylline-stimulated mouse B16-4A5 cells at 1000 uM after 72 hrs; assay type: functional; details: B16-4A5, 72 h
[21] = Inhibition of theophylline-stimulated mouse B16-4A5 cell proliferation assessed as cell viability at 300 uM after 68 hrs by WST8 assay; assay type: functional; details: B16-4A5, 68 h
[22] = Inhibition of theophylline-stimulated mouse B16-4A5 cell proliferation assessed as cell viability at 1000 uM after 68 hrs by WST8 assay; assay type: functional; details: B16-4A5, 68 h

Row | SMILES | inhibition [1] | inhibition [2] | IC50 (Tyrosinase) | inhibition at 1 µM (cells [3]) | inhibition at 3 µM (cells [4]) | inhibition at 10 µM (cells [5]) | inhibition at 30 µM (cells [6]) | inhibition at 100 µM (cells [7]) | IC50 (B16) | inhibition at 1 µM (cells [8]) | inhibition at 3 µM (cells [9]) | inhibition at 10 µM (cells [10]) | inhibition at 30 µM (cells [11]) | inhibition at 100 µM (cells [12]) | IC50 (cells [13]) | also measured
1 | O=C(CCc1ccccc1)C[C@H](O)CCc1ccccc1 | 3.3% | 2.5% | > 100 µM | -3.3% | 6.8% | 10.6% | 33% | 67.8% | 48 µM | 0% | 0.7% | -4.7% | -7.6% | -7.6% | > 100 µM | 
2 | COc1cc(CC/C=C/C(=O)CCc2ccccc2)ccc1O | 3.2% | 3% | > 100 µM | 11.6% | 22.5% | 49.3% | 80.1% |  | 10 µM | 3.2% | 3.8% | 5.1% | 2.6% | 90.6% | 60 µM | Activity (B16-4A5 [14]): Active; Activity (B16-4A5 [15]): Active; Activity (B16-4A5 [16]): Active; Activity (B16-4A5 [17]): inactive; Activity (B16-4A5 [18]): Active
3 | COc1cc(CC[C@@H](O)CC(=O)CCc2ccccc2)ccc1O | 2.3% | 4.7% | > 100 µM | 7.5% | 8.9% | 23.4% | 49.2% | 81.1% | 30 µM | 5.3% | 11.7% | 11.8% | 15.1% | 20.8% | > 100 µM | 
4 | O[C@H](CCc1ccccc1)C[C@H](O)CCc1ccccc1 | 2.7% | 4.6% | > 100 µM | 10.4% | 11.1% | 7.2% | 48.1% |  | 33 µM | 1.1% | -0.5% | 1.6% | -2.3% | 90.2% | 60 µM | 
5 | OC[C@H]1O[C@@H](Oc2ccc(O)cc2)[C@H](O)[C@@H](O)[C@@H]1O [ARBUTIN] |  |  |  |  |  | 6.7% | 17.8% | 46.9% | 116 µM |  |  | 8.7% | 17.6% | 21.9% | > 1000 µM | inhibition at 300 µM [19]: 71%; inhibition at 1000 µM [20]: 88.7%; inhibition at 300 µM [21]: 20.2%; inhibition at 1000 µM [22]: 46.9%
6 | O=C1c2c(O)cc(O)cc2O[C@H](c2ccc(O)cc2)[C@H]1O [DIHYDROKAEMPFEROL] | 6% | 4.4% | > 100 µM | 8.7% | 1.2% | 12.7% | 20.5% | 56% | 84 µM | 0.2% | 5.9% | 13.8% | 23.9% | 30.5% | > 100 µM | 
7 | O=c1c(O)c(-c2ccccc2)oc2cc(O)cc(O)c12 [GALANGIN] | 28% | 26.6% | > 100 µM | -0.5% | -5.3% | 43.4% | 87.1% |  | 17 µM | 1.7% | 7.1% | 11.4% | 12.7% | 53.3% | 100 µM | Activity (B16-4A5 [14]): Active; Activity (B16-4A5 [15]): Active; Activity (B16-4A5 [16]): Active; Activity (B16-4A5 [17]): inactive; Activity (B16-4A5 [18]): Active
8 | COc1ccc(-c2oc3cc(O)cc(O)c3c(=O)c2O)cc1 [KAEMPFERIDE] | -1.7% | -0.2% | > 100 µM | 0% | 5.9% | 39.9% | 81.2% | 78.4% | 16 µM | -2% | 3.1% | 7.9% | 7.4% | 11.2% | > 100 µM | Activity (B16-4A5 [14]): Active; Activity (B16-4A5 [15]): Active; Activity (B16-4A5 [16]): Active; Activity (B16-4A5 [17]): inactive; Activity (B16-4A5 [18]): Active
9 | O=c1c(O)c(-c2ccc(O)cc2)oc2cc(O)cc(O)c12 [KAEMPFEROL] | 5.7% | 7.6% | > 100 µM | 8.3% | 9.9% | 23.4% | 61.1% |  | 20 µM | 5.6% | 18.1% | 23.5% | 26.1% | 56% | 88 µM | 
10 | O=C(O)CCc1ccccc1 [PHENYL PROPIONIC ACID] | 3.8% | 5.3% | > 100 µM | 0.1% | 6.3% | 3.8% | 16.9% | 20.9% | > 100 µM | -1.4% | -2.8% | 1.2% | 1.3% | 2.9% | > 100 µM | 
11 | O=C1c2c(O)cc(O)cc2O[C@H](c2ccccc2)[C@H]1O [PINOBAKSIN] | 1.8% | 2.8% | > 100 µM |  | -5.8% | 10.8% | 16.9% | 47.7% | > 100 µM | 2.2% | 3.6% | 7% | 7.1% | 6.9% | > 100 µM | 
12 | COc1cc(CCC(C)=O)ccc1O [ZINGERONE] | 1.4% | 2.1% | > 100 µM | 7.6% | 3.7% | 6.1% | 8.3% | 15.5% | > 100 µM | -0.5% | -2.8% | -8% | -8.8% | -6.1% | > 100 µM | 
